Reference: ChEMBL document CHEMBL1201862, “PubChem BioAssay data set” (2004)
Calls of active or inactive are those of the source.

Tests used:
[1] = tested on: Vero; experiment: cells; type: functional; details: Chlorocebus sabaeus
[2] = target: T1, Zinc finger protein mex-5 (Caenorhabditis elegans, UniProt Q9XUB2); experiment: potency of MEX-5 RNA-binding blockers – biochemical, C. elegans, fluorescence polarization, dose response (AID 1960)
T1 sequence (Q9XUB2 whole entry): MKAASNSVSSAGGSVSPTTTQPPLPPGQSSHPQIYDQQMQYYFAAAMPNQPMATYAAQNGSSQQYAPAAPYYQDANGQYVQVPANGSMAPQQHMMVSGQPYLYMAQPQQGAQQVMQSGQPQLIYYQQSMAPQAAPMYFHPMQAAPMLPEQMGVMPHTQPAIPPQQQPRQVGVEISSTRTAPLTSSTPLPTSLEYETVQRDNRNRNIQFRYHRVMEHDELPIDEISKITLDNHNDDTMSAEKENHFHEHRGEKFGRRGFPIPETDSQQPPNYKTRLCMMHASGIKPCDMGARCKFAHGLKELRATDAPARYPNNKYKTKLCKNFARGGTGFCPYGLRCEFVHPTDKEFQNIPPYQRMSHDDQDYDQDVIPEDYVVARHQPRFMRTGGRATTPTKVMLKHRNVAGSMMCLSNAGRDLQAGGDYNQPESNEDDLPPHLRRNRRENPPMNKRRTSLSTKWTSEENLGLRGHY

[3] = target: T2, RNA-binding protein pos-1 (Caenorhabditis elegans, UniProt G5EF15); experiment: disruptors of C. elegans POS-1 RNA interaction – biochemical, fluorescence polarization, dose response (AID 1964);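 also: purified POS-1 fused to maltose binding protein made in E. coli; potency of compounds blocking POS-1 binding to fluorescent RNA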
T2 sequence (G5EF15 whole entry): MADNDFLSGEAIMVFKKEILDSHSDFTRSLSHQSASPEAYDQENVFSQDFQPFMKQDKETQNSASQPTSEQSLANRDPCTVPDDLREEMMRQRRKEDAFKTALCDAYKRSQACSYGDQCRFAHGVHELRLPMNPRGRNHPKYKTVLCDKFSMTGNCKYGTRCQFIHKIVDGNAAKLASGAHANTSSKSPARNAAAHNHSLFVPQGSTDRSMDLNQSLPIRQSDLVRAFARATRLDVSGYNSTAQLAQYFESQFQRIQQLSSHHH

[4] = target: Heat shock protein HSP 90-alpha (Homo sapiens, UniProt P07900); type: functional, organism-based
[5] = target: T3, Corticotropin-releasing factor receptor 2/Corticotropin-releasing factor-binding protein (Homo sapiens, UniProt P24387+Q13324); experiment: activators of CRF receptor 2 with binding protein – uHTS hits, confirmation (AID 602473); type: functional; details: read-out: EC50_Mean
T3 sequence (Q13324 whole entry): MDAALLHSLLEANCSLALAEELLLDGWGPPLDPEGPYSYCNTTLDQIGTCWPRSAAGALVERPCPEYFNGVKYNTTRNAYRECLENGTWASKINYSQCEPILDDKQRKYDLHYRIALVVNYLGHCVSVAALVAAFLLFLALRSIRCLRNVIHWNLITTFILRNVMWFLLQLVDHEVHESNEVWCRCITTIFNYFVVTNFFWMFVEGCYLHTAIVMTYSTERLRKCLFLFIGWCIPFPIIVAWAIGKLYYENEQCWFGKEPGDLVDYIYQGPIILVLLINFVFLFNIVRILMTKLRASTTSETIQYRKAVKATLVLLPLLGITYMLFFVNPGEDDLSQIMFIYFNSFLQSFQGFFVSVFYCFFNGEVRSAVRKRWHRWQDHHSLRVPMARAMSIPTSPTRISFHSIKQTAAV
T3 sequence (P24387 whole entry): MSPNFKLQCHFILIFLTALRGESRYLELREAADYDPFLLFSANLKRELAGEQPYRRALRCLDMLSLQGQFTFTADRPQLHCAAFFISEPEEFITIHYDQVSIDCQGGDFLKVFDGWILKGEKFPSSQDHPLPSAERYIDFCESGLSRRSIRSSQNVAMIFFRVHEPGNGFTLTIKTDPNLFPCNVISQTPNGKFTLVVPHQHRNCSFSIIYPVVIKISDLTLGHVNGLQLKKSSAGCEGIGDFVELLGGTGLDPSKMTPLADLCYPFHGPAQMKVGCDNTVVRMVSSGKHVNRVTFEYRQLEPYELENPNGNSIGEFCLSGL

[6] = target: T4, Carboxy-terminal domain RNA polymerase II polypeptide A small phosphatase 1 (Homo sapiens, UniProt Q9GZU7); experiment: CTDSP1 inhibitors, concentration-response, biochemical, absorbance readout, ultra-high-throughput screen actives (AID 540297); type: functional
T4 sequence (Q9GZU7 whole entry): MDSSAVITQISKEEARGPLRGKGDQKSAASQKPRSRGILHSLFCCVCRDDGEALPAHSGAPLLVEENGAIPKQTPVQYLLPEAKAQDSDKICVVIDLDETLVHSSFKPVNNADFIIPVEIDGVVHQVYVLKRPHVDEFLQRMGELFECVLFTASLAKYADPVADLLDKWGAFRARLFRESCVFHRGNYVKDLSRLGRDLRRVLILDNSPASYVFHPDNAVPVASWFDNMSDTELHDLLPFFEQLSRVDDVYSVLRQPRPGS

[7] = target: Paired box protein Pax-8 (Homo sapiens, UniProt Q06710); experiment: PAX8 transcriptional activity inhibition in RMG-I – RMG-I cells, luciferase, cherry-pick, dose response (AID 687027); type: functional, cell-based;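 also: luciferase reporter driven by Pax8 target thyroperoxidase promoter measured by SteadyGlo luminescence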
Paired box protein Pax-8, sequence (Q06710 whole entry): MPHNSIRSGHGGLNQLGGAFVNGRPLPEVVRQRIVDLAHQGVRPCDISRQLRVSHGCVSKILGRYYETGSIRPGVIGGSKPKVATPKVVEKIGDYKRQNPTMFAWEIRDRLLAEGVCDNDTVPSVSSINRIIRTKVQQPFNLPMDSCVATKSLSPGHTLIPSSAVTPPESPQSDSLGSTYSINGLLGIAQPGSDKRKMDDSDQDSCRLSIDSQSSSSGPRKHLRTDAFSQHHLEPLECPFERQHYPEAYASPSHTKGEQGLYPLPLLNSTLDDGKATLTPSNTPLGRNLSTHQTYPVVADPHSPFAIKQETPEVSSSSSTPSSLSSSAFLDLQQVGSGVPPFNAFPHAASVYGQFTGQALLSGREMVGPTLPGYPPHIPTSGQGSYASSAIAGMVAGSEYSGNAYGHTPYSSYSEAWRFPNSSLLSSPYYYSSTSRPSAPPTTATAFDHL

SMILES: COc1cccc(-c2ccc(NC(=O)C3CCCN(Cc4cnn(C(C)C)c4)C3)cc2)c1 (stereo not drawn)
- CC50 [1]: > 25 µM (active)

SMILES: CC(=O)c1c(C(C)=O)c(C)n(-c2ccc(C(=O)O)cc2)c1C
- EC50 [2]: > 300 µM (not active)
- EC50 [3]: > 300 µM (not active)

SMILES: Cc1cc(C(F)(F)F)c2c(N)c(C(=O)Nc3cc(C)on3)sc2n1
- EC50 [2]: 39.2 µM (active)
- EC50 [3]: > 300 µM (inconclusive)

SMILES: CN(O)C(=S)c1ccccc1
- AC50 [4]: 0.521 µM (active)

SMILES: O=C(NCCOC(=O)C1COc2ccccc2O1)c1cccnc1 (stereo not drawn)
- EC50 [5]: > 53 µM (inactive)

SMILES: C[N+]1(C2CCC3CCCC2C3O)CCCC1 (stereo not drawn)
- IC50 [6]: 6.98 µM (active)

SMILES: CCn1c(=O)c(NC(=O)c2ccccc2)c2n(c1=S)CCCCC2
- IC50 [6]: 8.47 µM (active)

SMILES: Cc1ccc(-c2cc3nc(-c4ccccc4)cc(NCCCO)n3n2)cc1
- CC50 [1]: > 25 µM (active)

SMILES: C#CCN(C[C@H]1[C@H](OC(=O)Nc2c(C)noc2C)[C@H](OC(=O)Nc2c(C)noc2C)C[C@@H](C(=O)OC)[C@H]1C(=O)OC)S(=O)(=O)c1ccc(C)cc1
- AC50 [7]: 31.9 µM (active)

SMILES: C[C@H]1CCCCO[C@@H](CN(C)C)[C@@H](C)CN([C@@H](C)CO)C(=O)c2cc(NC(=O)Nc3ccc(C(F)(F)F)cc3)ccc2O1
- AC50 [7]: 22.1 µM (active)

SMILES: C[C@@H]1CCCCO[C@H](CN(C)C(=O)Nc2ccc(F)cc2)[C@@H](C)CN([C@@H](C)CO)C(=O)c2cc(NC(=O)Nc3ccc(C(F)(F)F)cc3)ccc2O1
- AC50 [7]: 2.58 µM (active)

SMILES: C[C@@H]1CCCCO[C@H](CN(C)Cc2ccc(C(F)(F)F)cc2)[C@H](C)CN([C@H](C)CO)C(=O)c2cc(NS(=O)(=O)c3ccc(F)cc3)ccc2O1
- AC50 [7]: 6.71 µM (active)

SMILES: COc1ccc(OC)c(/N=C/c2c(O)oc3ccccc3c2=O)c1
- EC50 [2]: > 300 µM (inconclusive)
- EC50 [3]: > 300 µM (inconclusive)

SMILES: COc1ccc(C2CC(=O)C(/C=N/CCCO)=C(O)C2)cc1 (stereo not drawn)
- EC50 [2]: 37.9 µM (active)
- EC50 [3]: 34.8 µM (active)
